What was measured:
Experiment in all cases: radiometric filter-binding kinase assay, Kinase HotSpot
Conditions in all cases: compound 0.5 µM; ATP 10 µM
HIPK4 (human) = HIPK4 (human) (UniProt Q8NE63)
MYLK2 (human) = MYLK2 (human) (UniProt Q9H1R3)
TSSK1B (human) = TSSK1B (human) (UniProt Q9BXA7)
CLK1 (human) = CLK1 (human) (UniProt P49759)
RPS6KA5 KD2 (human) = RPS6KA5 KD2 (human) (UniProt O75582)
CAMK2B (human) = CAMK2B (human) (UniProt Q13554)
STK11 (human) = STK11 (human) (UniProt Q15831)
JAK3 JH1 JH2 (human) = JAK3 JH1 JH2 (human) (UniProt P52333)
[1] = molecular target: TYK2 JH1 catalytic (human) (UniProt P29597)
[2] = molecular target: JAK1 JH1 catalytic (human) (UniProt P23458)
YES1 (human) = YES1 (human) (UniProt P07947)
TSSK2 (human) = TSSK2 (human) (UniProt Q96PF2)
MAPK1 (human) = MAPK1 (human) (UniProt P28482)
CDK6 CCND3 (human) = CDK6 CCND3 (human) (UniProt P30281+Q00534)
PIM2 (human) = PIM2 (human) (UniProt Q9P1W9)
CAMK1G (human) = CAMK1G (human) (UniProt Q96NX5)
GRK4 (human) = GRK4 (human) (UniProt P32298)
STK39 (human) = STK39 (human) (UniProt Q9UEW8)
TAOK3 (human) = TAOK3 (human) (UniProt Q9H2K8)
TYRO3 (human) = TYRO3 (human) (UniProt Q06418)
TGFBR1 (human) = TGFBR1 (human) (UniProt P36897)
CDK4 CCND1 (human) = CDK4 CCND1 (human) (UniProt P24385+P11802)
VRK1 (human) = VRK1 (human) (UniProt Q99986)
PBK (human) = PBK (human) (UniProt Q96KB5)
RIPK2 (human) = RIPK2 (human) (UniProt O43353)
CDK3 CCNE1 (human) = CDK3 CCNE1 (human) (UniProt Q00526+P24864)
DAPK2 (human) = DAPK2 (human) (UniProt Q9UIK4)
PRKCH (human) = PRKCH (human) (UniProt P24723)
PRKCI (human) = PRKCI (human) (UniProt P41743)
CAMK2A (human) = CAMK2A (human) (UniProt Q9UQM7)
EPHB4 (human) = EPHB4 (human) (UniProt P54760)
ROCK1 (human) = ROCK1 (human) (UniProt Q13464)
DAPK3 (human) = DAPK3 (human) (UniProt O43293)
PRKD1 (human) = PRKD1 (human) (UniProt Q15139)
STK33 (human) = STK33 (human) (UniProt Q9BYT3)
AKT3 (human) = AKT3 (human) (UniProt Q9Y243)
CAMK2D (human) = CAMK2D (human) (UniProt Q13557)
GRK7 (human) = GRK7 (human) (UniProt Q8WTQ7)
IRAK1 (human) = IRAK1 (human) (UniProt P51617)
CHEK1 (human) = CHEK1 (human) (UniProt O14757)
CDK2 CCNA2 (human) = CDK2 CCNA2 (human) (UniProt P24941+P20248)

Chain of AKT3 (human) (Q9Y243 whole entry, looked up): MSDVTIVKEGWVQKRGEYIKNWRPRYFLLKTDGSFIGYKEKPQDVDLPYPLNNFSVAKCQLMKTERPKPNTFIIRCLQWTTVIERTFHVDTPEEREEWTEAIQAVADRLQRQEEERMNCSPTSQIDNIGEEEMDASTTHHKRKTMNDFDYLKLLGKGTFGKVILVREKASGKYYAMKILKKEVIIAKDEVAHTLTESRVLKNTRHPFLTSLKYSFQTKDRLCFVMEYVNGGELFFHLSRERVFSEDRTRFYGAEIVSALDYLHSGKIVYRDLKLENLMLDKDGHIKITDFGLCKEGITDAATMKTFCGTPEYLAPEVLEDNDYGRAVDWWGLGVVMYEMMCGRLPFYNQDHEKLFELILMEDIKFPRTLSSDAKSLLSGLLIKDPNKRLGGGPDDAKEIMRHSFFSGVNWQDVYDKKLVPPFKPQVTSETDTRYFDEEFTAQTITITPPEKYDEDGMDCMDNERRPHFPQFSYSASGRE
Chain of TSSK1B (human) (Q9BXA7 whole entry, looked up): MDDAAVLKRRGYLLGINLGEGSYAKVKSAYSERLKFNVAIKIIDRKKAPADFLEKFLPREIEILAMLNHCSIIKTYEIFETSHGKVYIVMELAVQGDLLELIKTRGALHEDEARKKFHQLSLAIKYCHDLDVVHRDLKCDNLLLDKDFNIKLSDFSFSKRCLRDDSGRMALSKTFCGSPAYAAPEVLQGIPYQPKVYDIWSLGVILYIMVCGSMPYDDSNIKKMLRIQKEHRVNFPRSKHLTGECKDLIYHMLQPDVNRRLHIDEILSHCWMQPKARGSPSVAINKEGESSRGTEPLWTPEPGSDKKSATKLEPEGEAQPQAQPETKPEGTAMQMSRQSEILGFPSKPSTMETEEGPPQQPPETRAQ
Chain of VRK1 (human) (Q99986 whole entry, looked up): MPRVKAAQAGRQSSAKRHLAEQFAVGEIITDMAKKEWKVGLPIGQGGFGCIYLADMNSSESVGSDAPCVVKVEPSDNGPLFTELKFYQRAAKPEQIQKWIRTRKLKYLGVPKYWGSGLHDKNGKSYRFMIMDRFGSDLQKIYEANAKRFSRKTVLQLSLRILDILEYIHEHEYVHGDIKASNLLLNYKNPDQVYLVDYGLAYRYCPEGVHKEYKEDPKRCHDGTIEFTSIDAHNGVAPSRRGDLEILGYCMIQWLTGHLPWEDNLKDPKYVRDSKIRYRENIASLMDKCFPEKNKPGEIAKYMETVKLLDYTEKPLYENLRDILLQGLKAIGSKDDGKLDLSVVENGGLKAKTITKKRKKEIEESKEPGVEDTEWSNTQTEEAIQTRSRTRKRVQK
Chain of TGFBR1 (human) (P36897 whole entry, looked up): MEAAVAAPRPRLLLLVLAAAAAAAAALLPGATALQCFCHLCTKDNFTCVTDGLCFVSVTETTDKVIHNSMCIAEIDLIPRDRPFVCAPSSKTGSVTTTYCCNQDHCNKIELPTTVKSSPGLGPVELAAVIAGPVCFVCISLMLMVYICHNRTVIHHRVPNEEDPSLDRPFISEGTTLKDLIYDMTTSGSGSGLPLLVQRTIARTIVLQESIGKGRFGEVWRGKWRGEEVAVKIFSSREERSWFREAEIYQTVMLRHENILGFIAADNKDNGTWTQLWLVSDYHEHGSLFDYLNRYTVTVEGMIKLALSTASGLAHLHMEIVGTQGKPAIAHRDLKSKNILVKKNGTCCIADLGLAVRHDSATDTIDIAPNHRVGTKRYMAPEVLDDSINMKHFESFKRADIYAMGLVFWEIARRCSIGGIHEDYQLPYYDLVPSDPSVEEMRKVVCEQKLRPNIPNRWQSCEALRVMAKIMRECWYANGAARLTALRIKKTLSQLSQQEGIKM
Chain of CLK1 (human) (P49759 whole entry, looked up): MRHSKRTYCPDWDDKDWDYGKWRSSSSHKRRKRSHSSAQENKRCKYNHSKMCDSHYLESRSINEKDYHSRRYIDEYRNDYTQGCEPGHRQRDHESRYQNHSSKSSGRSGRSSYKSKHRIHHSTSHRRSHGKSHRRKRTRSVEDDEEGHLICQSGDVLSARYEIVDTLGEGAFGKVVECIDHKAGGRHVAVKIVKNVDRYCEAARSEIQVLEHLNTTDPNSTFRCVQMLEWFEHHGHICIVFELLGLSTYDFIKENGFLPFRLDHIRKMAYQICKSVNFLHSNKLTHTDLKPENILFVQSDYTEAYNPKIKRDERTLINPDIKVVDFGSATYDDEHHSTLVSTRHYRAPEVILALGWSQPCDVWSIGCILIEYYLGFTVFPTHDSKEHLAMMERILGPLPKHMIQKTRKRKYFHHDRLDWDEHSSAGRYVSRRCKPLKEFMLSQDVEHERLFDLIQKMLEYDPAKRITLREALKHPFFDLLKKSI
Chain of DAPK3 (human) (O43293 whole entry, looked up): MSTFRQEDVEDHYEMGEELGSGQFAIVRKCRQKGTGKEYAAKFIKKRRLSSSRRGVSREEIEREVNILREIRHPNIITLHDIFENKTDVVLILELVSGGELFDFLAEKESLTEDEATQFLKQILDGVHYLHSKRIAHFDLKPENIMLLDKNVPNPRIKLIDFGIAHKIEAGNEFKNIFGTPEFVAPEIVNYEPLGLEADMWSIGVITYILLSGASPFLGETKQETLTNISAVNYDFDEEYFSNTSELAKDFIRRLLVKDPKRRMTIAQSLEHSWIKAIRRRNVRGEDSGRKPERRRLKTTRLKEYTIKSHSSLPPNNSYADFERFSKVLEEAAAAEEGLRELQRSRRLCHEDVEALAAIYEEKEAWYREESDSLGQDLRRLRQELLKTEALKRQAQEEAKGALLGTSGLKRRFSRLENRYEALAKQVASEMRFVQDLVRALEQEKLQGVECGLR
Chain of ROCK1 (human) (Q13464 whole entry, looked up): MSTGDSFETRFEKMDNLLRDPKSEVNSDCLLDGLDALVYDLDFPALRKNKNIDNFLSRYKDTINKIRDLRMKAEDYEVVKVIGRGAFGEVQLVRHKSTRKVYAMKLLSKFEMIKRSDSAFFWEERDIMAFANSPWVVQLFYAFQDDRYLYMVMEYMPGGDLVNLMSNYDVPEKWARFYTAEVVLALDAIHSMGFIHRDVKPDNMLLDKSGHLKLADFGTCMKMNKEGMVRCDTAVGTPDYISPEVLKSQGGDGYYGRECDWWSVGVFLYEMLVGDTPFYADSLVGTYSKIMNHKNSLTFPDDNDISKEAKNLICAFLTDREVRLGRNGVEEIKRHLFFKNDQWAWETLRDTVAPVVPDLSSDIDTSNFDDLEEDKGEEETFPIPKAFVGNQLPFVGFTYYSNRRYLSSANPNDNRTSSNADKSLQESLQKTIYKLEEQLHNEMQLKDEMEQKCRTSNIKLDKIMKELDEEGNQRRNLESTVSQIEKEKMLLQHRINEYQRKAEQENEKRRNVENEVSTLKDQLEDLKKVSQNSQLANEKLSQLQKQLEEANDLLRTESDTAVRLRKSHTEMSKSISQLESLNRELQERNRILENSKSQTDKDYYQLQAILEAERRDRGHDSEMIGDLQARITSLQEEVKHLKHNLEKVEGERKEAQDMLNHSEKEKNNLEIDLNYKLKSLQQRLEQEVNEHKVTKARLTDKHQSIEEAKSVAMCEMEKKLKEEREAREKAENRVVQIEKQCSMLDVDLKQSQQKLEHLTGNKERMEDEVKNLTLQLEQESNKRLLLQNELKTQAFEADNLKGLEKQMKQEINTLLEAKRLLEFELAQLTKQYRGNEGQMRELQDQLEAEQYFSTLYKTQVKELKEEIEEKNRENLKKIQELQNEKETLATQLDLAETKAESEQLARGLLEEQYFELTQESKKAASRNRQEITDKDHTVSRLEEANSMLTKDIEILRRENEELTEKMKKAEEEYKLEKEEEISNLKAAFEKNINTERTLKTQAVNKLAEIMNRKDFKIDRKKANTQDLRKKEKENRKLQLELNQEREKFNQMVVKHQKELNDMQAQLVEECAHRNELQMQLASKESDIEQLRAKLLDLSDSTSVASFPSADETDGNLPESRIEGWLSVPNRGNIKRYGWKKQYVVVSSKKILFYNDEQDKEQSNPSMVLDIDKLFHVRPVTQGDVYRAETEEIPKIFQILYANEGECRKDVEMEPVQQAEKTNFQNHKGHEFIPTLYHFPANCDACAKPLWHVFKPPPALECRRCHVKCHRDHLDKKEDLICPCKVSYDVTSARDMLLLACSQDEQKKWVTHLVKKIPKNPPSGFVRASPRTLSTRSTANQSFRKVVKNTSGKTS
Chain of CAMK2D (human) (Q13557 whole entry, looked up): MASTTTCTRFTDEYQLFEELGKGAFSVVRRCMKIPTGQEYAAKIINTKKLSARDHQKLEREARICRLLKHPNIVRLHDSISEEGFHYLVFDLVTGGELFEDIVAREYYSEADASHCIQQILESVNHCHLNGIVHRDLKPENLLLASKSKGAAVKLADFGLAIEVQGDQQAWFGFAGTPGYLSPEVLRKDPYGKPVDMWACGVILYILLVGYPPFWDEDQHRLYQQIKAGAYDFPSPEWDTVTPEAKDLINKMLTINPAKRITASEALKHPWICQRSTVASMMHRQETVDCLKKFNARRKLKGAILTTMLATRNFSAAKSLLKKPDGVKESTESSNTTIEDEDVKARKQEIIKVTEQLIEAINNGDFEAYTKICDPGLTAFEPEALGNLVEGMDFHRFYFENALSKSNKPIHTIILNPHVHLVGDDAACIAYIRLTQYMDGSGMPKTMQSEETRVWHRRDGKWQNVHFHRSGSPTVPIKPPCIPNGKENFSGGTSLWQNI
Chain of STK11 (human) (Q15831 whole entry, looked up): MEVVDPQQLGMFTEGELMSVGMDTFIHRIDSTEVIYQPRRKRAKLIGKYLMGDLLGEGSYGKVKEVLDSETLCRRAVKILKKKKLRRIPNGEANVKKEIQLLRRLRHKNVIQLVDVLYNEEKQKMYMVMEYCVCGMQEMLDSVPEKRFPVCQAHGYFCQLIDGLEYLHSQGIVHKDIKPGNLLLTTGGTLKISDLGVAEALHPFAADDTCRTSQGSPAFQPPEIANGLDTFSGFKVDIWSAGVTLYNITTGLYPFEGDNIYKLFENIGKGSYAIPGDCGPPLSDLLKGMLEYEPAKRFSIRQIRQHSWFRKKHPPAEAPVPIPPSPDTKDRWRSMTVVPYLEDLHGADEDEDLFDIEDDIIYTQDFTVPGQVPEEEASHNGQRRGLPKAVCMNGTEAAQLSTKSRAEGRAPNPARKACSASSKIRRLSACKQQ

Row | SMILES | residual activity (HIPK4 (human)) [%] | residual activity (MYLK2 (human)) [%] | residual activity (TSSK1B (human)) [%] | residual activity (CLK1 (human)) [%] | residual activity (RPS6KA5 KD2 (human)) [%] | residual activity (CAMK2B (human)) [%] | residual activity (STK11 (human)) [%] | residual activity (JAK3 JH1 JH2 (human)) [%] | residual activity [1] [%] | residual activity [2] [%] | residual activity (YES1 (human)) [%] | residual activity (TSSK2 (human)) [%] | residual activity (MAPK1 (human)) [%] | residual activity (CDK6 CCND3 (human)) [%] | residual activity (PIM2 (human)) [%] | residual activity (CAMK1G (human)) [%] | residual activity (GRK4 (human)) [%] | residual activity (STK39 (human)) [%] | residual activity (TAOK3 (human)) [%] | residual activity (TYRO3 (human)) [%] | other results
1 | N/C(=N\N=C/c1ccc(-c2cccc([N+](=O)[O-])c2)o1)N[N+](=O)[O-] | 102 | 100 | 96.7 | 105 | 101 | 100 | 98.7 | 103 | 110 | 102 | 95.6 | 101 | 99.7 | 94.7 | 106 | 104 | 95.5 | 91.8 | 99.5 | 91.5 | residual activity (TGFBR1 (human)): 96.6%; residual activity (CDK4 CCND1 (human)): 96.6%; residual activity (VRK1 (human)): 95.1%; residual activity (PBK (human)): 111%; residual activity (RIPK2 (human)): 106%; residual activity (CDK3 CCNE1 (human)): 85%; residual activity (DAPK2 (human)): 80.1%; residual activity (PRKCH (human)): 98.1%; residual activity (PRKCI (human)): 92.3%; residual activity (CAMK2A (human)): 100%; residual activity (EPHB4 (human)): 91.6%; residual activity (ROCK1 (human)): 91.7%; residual activity (DAPK3 (human)): 103%; residual activity (PRKD1 (human)): 103%; residual activity (STK33 (human)): 102%; residual activity (AKT3 (human)): 94.3%; residual activity (CAMK2D (human)): 90.1%; residual activity (GRK7 (human)): 97%
2 | O=c1c(-c2ccc(F)cc2)c(-c2ccncc2)[nH]n1-c1ccc(Cl)cc1 | 94.6 | 101 | 76.2 | 97 | 93.5 | 93.7 | 98.8 | 106 | 90.9 | 103 | 85.1 | 80 | 77.3 | 93.7 | 114 | 104 | 97.9 | 128 | 89.5 | 105 | residual activity (IRAK1 (human)): 103%; residual activity (CHEK1 (human)): 101%; residual activity (TGFBR1 (human)): 101%; residual activity (CDK4 CCND1 (human)): 102%; residual activity (VRK1 (human)): 92.9%; residual activity (PBK (human)): 87.7%; residual activity (RIPK2 (human)): 50.2%; residual activity (CDK2 CCNA2 (human)): 89.9%; residual activity (CDK3 CCNE1 (human)): 86.9%; residual activity (DAPK2 (human)): 104%; residual activity (PRKCH (human)): 89%; residual activity (PRKCI (human)): 96.2%; residual activity (CAMK2A (human)): 86.9%; residual activity (EPHB4 (human)): 97.2%; residual activity (ROCK1 (human)): 109%; residual activity (DAPK3 (human)): 94.7%; residual activity (PRKD1 (human)): 84.7%; residual activity (STK33 (human)): 101%; residual activity (AKT3 (human)): 94.3%; residual activity (CAMK2D (human)): 95.6%
3 | O=S(=O)(NCCNC/C=C/c1ccc(Br)cc1)c1cccc2cnccc12 | 97.7 | 96.5 | 93.5 | 103 | 39.4 | 93.3 | 102 | 122 | 103 | 87.3 | 91.6 | 104 | 108 | 96.6 | 104 | 99.1 | 95.8 | 103 | 95.4 | 93.9 | residual activity (IRAK1 (human)): 95.7%; residual activity (CHEK1 (human)): 90.8%; residual activity (TGFBR1 (human)): 97%; residual activity (CDK4 CCND1 (human)): 93.9%; residual activity (VRK1 (human)): 80.1%; residual activity (PBK (human)): 107%; residual activity (RIPK2 (human)): 77.8%; residual activity (CDK2 CCNA2 (human)): 105%; residual activity (CDK3 CCNE1 (human)): 77.3%; residual activity (DAPK2 (human)): 72.1%; residual activity (PRKCH (human)): 53.2%; residual activity (PRKCI (human)): 88.4%; residual activity (CAMK2A (human)): 102%; residual activity (EPHB4 (human)): 108%; residual activity (ROCK1 (human)): 37.8%; residual activity (DAPK3 (human)): 97.4%; residual activity (PRKD1 (human)): 98.7%; residual activity (STK33 (human)): 79.5%; residual activity (AKT3 (human)): 69%; residual activity (CAMK2D (human)): 97.1%
